The structures appear in SMILES notation.

The assay concerns 143B cells. The assay is described as follows: Stable isotope tracing with uniformly labeled 13C-glutamine. The settings on record: [U-13C]glutamine. It counts as cell-based. How it is done:
1-5.0×10^6 cells were harvested on dry ice with 1 mL pre-chilled 80% HPLC-grade methanol (Fluka Analytical). The cell mixture was incubated for 15 min on dry ice prior to centrifugation at 18,000 × g for 10 min at 4°C. The supernatant was retained, and the remaining cell pellet was resuspended in 800 µL chilled 80% methanol and centrifuged. Supernatant was combined with the previous retention and was lyophilized using a SpeedVac (Thermo Fisher). Lyophilized samples were resuspended in 20 µL ultrapure water and subjected to metabolomics profiling using the AB/SCIEX 5500 QTRAP triple quadrupole instrument. Data analysis was performed using the GiTools software. 13C-labeled glutamine and glucose was acquired in SIGMA (605166 and 389374).
Encouraged by the beneficial effects of ME1 and because ME1-dependent NADPH production is linked to intracellular malate levels, we sought to investigate the metabolic pathways and nutrients that maintain malate production upon disruption of the ETC. It is firmly believed that in cells and tissues with defective ETC function, elevated NADH/NAD+ ratio inhibits the Pyruvate dehydrogenase complex (PDC), suppressing pyruvate entry into the mitochondria and forcing its channelling towards the Lactate Dehydrogenase (LDH) in the cytosol. […] To investigate the metabolic routes that ETC-inhibited cells used to generate glutamine-derived malate, we performed an MS-based stable isotope tracing study. DMSO and Piericidin treated 143B cells were cultured in glucose-DMEM supplemented with 2 mM of uniformly labeled [^13C]glutamine, and the incorporation of ^13C into the TCA cycle and related metabolic intermediates was quantified. Oxidative metabolism of [U-^13C]glutamine would generate M+4 isotopologues of oxaloacetate (OAA) and malate, while reductive carboxylation due to ETC inhibition (TCA cycle running in a counterclockwise direction) would produce M+3 forms of OAA and malate. DMSO-treated 143B cells used glutamine as the major anaplerotic precursor, resulting in a large amount of malate M+4. As expected, the oxidation of glutamine via the TCA cycle in CI-inhibited cells was severely diminished with a 5-fold decreased in M+4 labeled malate. Nevertheless, these cells produced citrate M+5 through reductive carboxylation of glutamine-derived a-ketoglutarate. This reaction involves addition of an unlabeled carbon by IDH2 acting in reverse relative to the canonical oxidative TCA cycle. Malate M+3 also rose more than a ~2-fold in CI-inhibited cells and was likely formed after cleavage of citrate M+5 by ATP-citrate lyase (ACLY) since this induction was blunted in ACLY KO cells. Thus, cells with defective ETC use glutamine-dependent reductive carboxylation rather than oxidative metabolism as the major pathway of malate production. […]

The mark [1] stands for this setting: CI-inhibited vs DMSO 143B cells.

Turning to `CC=C(C)C(O)C(C)C=C(C)C=CCC(C)=CCc1nc(OC)c(OC)c(O)c1C` (stereo not shown) [Piericidin, Piericidin A], under setting [1], the “decrease in M+4 labeled malate” value is reported as 5 fold and the “rise of Malate M+3” value was more than 2 fold. For the setting “control and PC KO cells, 24 h”, the “labeling of malate M+3” value was “increasing” and the “malate M+4” value is listed as “reduction”.

For the origin of these results see patent EP4653001A1, “TREATMENT, DIAGNOSIS AND/OR PROGNOSIS OF MITOCHONDRIAL DISEASES” (Universidad Autónoma de Madrid, priority 2024, dated 2025).
